# From patent US20200289482A1, “CYSTIC FIBROSIS TRANSMEMBRANE CONDUCTANCE REGULATOR MODULATORS FOR TREATING AUTOSOMAL DOMINANT POLYCYSTIC KIDNEY DISEASE” (The Johns Hopkins University, priority 2017, published 2020)
# Experiments:
# CFTR = CFTR (Mus musculus, UniProt P26361); assay: Confocal microscopy localization of CFTR; assay type: cell-based; set-up: endogenous in cells; conditions: VX-809 treated vs control cells; ER, Golgi and PM markers
# Text: FIG. 18A and FIG. 18B show images of confocal microscopy localization studies of CFTR and localization markers in control and treated cells (FIG. 18A) and graphs showing Pearson's correlation coefficient for CFTR and localization markers in control and VX-809 treated cells (FIG. 18B).
# The localization of PC2 and CFTR in control cells was compared to the localization of PC2 and CFTR localization in VX-809 treated cells.
# AC6 = assay: Western blot of adenylyl cyclase 6 expression; assay type: cell-based, mouse; conditions: PN cells treated with VX-809
# Description: FIG. 4A, FIG. 4B, FIG. 4C, FIG. 4D, and FIG. 4E show (FIG. 4A-FIG. 4B) cAMP levels are reduced by VX-809. (FIG. 4A) cAMP levels in mouse tissue were reduced by VX-809. The kidney samples (n=6) analyzed were taken from those depicted in FIG. 1. (FIG. 4B) Confluent PN and PH cells were treated with VX-809 (10 μM) or DMSO for 16 h and then treated with forskolin (100 μM) for 30 min before the cells were harvested for the assay. Columns represent means±SEM. Statistical analysis was performed using a two-tailed Student's t-test. Each set of data is from three individual wells; Note that resting cAMP is greater in PN vs PH cells as previously shown (25). Also note that forskolin caused a large increase in cAMP. A smaller increase occurred with IBMX. However, the increase induced by forskolin alone was similar to that by IBMX plus forskolin. […] (FIG. 4C, FIG. 4D, and FIG. 4E) Adenylyl cyclase expression. (FIG. 4C) Western blot showing the expression of adenylyl cyclase (AC) 6 and AC3 in treated and control PN cells. (FIG. 4D-FIG. 4E) Columns represent means±SEM of the AC3 and AC6 expression. The data were analyzed by non-parametric t-test. The experiment was repeated four times. For all graphs, *P<0.05, **P<0.01, and ***P<0.001;
# There are two classes of adenylyl cyclases that are regulated by intracellular Ca^2+: one class is activated, and the other inhibited. […]
# [1] = system: caspase 3 activity in PN cells; assay: EnzChek Caspase-3 assay (apoptosis); assay type: cell-based, mouse; conditions: 16 h treatment
# Description: Apoptosis was measured using the EnzChek Caspase-3 Assay Kit (Invitrogen # E13184). Cells were treated either with VX-809 or with DMSO at indicated concentrations for 16 h or left untreated (control). Both treated and control cells were then harvested, lysed, and assayed as described in the manufacturer's protocol. Reactions were carried out at room temperature, and fluorescence was measured in a fluorescence microplate reader (SpectraMax M3), with excitation at 496 nm and emission detection at 520 nm. Background fluorescence, determined for a no-enzyme control, has been subtracted from each value. Ac-DEVD-CHO was used as an inhibitor control (Inh-cntrl) to confirm the correlation between signal detection and caspase3-like protease activity. Data were analyzed using one-way and ANOVA multiple comparisons. n=4-5. ****P<0.0001;
# Apoptosis is associated with the absence of PC1 in ADPKD (36). To assess whether apoptosis is directly altered by VX-809, caspase 3 activity was monitored in PN cells.
# [2] = system: cAMP in PC1 conditional knockout mouse kidneys; assay: cAMP levels in mouse kidney tissue; assay type: in vivo; conditions: kidney samples from mice of FIG. 1 (VX-809 30 mg/kg)
# Description: FIG. 4A, FIG. 4B, FIG. 4C, FIG. 4D, and FIG. 4E show (FIG. 4A-FIG. 4B) cAMP levels are reduced by VX-809. (FIG. 4A) cAMP levels in mouse tissue were reduced by VX-809. The kidney samples (n=6) analyzed were taken from those depicted in FIG. 1. (FIG. 4B) Confluent PN and PH cells were treated with VX-809 (10 μM) or DMSO for 16 h and then treated with forskolin (100 μM) for 30 min before the cells were harvested for the assay. Columns represent means±SEM. Statistical analysis was performed using a two-tailed Student's t-test. Each set of data is from three individual wells; Note that resting cAMP is greater in PN vs PH cells as previously shown (25). Also note that forskolin caused a large increase in cAMP. […] The data were analyzed by non-parametric t-test. […]
# It has been shown previously in both animal and cell culture models of ADPKD that cells lacking functional PC1 have elevated cAMP levels when compared to normal (24). To assess the effect of CFTR correctors, cAMP activity was measured in PC1 conditional knockout mouse kidneys and in PN cells that were either left untreated or treated with VX-809. […]
# Confluent cells were treated with VX-809 (10 μM) or DMSO for 16 h before being harvested for assay. Cyclic AMP levels were measured with a direct cAMP Enzyme Immunoassay Kit (Sigma, # CA200) according to the manufacturer's protocol. The results are expressed as pmole/ml. […]
# NHE3 = NHE3 activity in PN cells; assay type: cell-based, mouse; conditions: PN cells treated with VX-809 vs PN cells
# Description: FIG. 15A and FIG. 15B show NHE3 activity in PN and PH cells (FIG. 15A and FIG. 15B) and NHE3 activity in PN cells treated with VX-809.
# FIG. 16A, FIG. 16B, and FIG. 16C show NHE activity in PN/PH cells or PN cells treated with VX-809;
# The expression and activity of […] were evaluated. Specifically, NHE3 expression was evaluated in PN cells that were treated with VX-809. […] was also studied in PN, PH, and PN cells treated with VX-809. […] Next, NHE3 activity was evaluated in PN/PH cells or PN cells treated with VX-809. NHE3 activity was increased in PN cells treated with VX-809, as compared to PN cells (FIG. 16A). NHE3 activity was higher in control PH cells than in PN cells (FIG. 16B). […] NHE3 activity was increased in both VX-809 treated PN cells and control PH cells, as compared to control PN cells (FIG. 16C).
# CFTR, sequence (P26361 whole entry): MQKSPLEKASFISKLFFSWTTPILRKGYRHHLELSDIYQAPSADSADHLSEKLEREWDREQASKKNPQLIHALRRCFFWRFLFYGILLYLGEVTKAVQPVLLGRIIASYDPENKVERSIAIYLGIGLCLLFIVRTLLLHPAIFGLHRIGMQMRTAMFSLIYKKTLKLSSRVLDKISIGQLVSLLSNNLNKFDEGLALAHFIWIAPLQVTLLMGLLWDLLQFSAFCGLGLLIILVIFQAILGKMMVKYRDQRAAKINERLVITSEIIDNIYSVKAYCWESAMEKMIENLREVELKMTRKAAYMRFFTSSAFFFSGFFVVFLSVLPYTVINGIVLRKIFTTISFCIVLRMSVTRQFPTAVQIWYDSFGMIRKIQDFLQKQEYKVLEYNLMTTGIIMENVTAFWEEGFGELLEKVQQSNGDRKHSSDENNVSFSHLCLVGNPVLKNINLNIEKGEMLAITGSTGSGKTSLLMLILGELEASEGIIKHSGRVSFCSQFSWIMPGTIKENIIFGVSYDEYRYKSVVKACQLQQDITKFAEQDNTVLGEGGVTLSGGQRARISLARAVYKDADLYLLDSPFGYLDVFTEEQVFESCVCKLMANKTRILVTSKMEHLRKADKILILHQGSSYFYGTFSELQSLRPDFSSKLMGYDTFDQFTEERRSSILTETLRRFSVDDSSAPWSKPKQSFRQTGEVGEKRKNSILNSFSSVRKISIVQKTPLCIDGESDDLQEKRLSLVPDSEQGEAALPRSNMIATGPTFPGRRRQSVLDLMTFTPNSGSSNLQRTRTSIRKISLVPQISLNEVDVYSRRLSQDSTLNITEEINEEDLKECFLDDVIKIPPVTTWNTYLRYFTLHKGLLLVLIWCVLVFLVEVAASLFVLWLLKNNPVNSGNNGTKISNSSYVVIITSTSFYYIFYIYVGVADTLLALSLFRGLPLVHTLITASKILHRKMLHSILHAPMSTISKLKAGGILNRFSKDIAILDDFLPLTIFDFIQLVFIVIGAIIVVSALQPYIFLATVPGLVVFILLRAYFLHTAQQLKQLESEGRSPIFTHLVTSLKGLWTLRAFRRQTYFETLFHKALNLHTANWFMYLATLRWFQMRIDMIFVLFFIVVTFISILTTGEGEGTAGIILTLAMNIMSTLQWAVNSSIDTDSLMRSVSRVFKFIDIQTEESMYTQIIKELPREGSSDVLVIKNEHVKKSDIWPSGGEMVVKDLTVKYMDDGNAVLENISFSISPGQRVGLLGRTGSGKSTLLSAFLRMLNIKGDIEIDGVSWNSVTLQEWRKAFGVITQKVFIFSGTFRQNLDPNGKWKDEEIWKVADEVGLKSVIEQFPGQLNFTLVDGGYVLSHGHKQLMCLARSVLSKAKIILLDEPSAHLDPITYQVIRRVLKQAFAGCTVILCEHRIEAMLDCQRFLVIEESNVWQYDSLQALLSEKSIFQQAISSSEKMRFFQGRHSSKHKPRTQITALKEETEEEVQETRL
substance,measurement,setting,value
lumacaftor [VX-809],localization of CFTR,CFTR,statistically significant move of CFTR from the ER to Basolateral and Apical Membrane
same,AC6 regulation (expression),AC6,not AC6
same,caspase 3 activity,[1],small reduction in caspase 3 activity
same,cAMP levels in mouse kidneys,[2],significantly decreased the cAMP levels
same,NHE3 activity,NHE3,significantly increased
